Literature values in patent US11517522B2, “Aprepitant ready-to-use injection emulsion compositions” (priority 2020, dated 2022).

Experiments:
[1] = IV infusion
[2] = test system: acute and delayed chemotherapy-induced nausea and vomiting; conditions: versus aprepitant
[3] = given orally; commercial nanoparticulate composition (Emend)

Compound | time for conversion to aprepitant [1] | comparison with aprepitant in prevention and control of acute and delayed chemotherapy-induced nausea and vomiting [2] | solubility in acetonitrile (acetonitrile) | solubility in ethanol (ethanol) | solubility in isopropyl acetate (isopropyl acetate) | solubility in water (water) | bioavailability [3]
C[C@@H](O[C@H]1OCCN(Cc2nc(O)n(P(=O)(O)O)n2)[C@H]1c1ccc(F)cc1)c1cc(C(F)(F)F)cc(C(F)(F)F)c1 [Fosaprepitant, fosaprepitant dimeglumine] | less than 30 minutes | non-inferiority and bioequivalency |  |  |  |  | 
C[C@@H](O[C@H]1OCCN(Cc2n[nH]c(=O)[nH]2)[C@H]1c1ccc(F)cc1)c1cc(C(F)(F)F)cc(C(F)(F)F)c1 [Aprepitant, 5-([(2R, 3S)-2-((R)-1-[3,5-bis (trifluoromethyl)phenyl]ethoxy)-3-(4-fluoro-phenyl)morpholino]methyl)-1H-1,2,4-triazol-3(2H)-one] |  |  | slightly soluble | sparingly soluble | sparingly soluble | practically insoluble | 60-65%
